# Like-named read-outs stand apart in the source and are kept apart here.
# Experiments:
# [1] = test system: HBV; assay: Anti-HBV activity in transfected 2.2.15 cells (HBV DNA replication intermediates, blot hybridization); assay type: cell-based, hepatitis B virus; settings: read-out: EC50 (μM) R.I.
# Experimental: The antiviral evaluations were performed on two separate passages of cells, two cultures per passage (4 cultures total). All wells, in all plates, were seeded at the same density and at the same time.
# Due to the inherent variations in the levels of both intracellular and extracellular HBV DNA, only depressions greater than 3.0-fold (for HBV virion DNA) or 2.5-fold (for HBV DNA replication intermediates) from the average levels for these HBV DNA forms in untreated cells are generally considered to be statistically significant [P<0.05] (Korba and Gerin, Antiviral Res. 19: 55-70, 1992). The levels of integrated HBV DNA in each cellular DNA preparation (which remain constant on a per cell basis in these experiments) were used to calculate the levels of intracellular HBV DNA forms, thereby eliminating technical variations inherent in the blot hybridization assays.
# Typical values for extracellular HBV virion DNA in untreated cells range from 50 to 150 pg/ml culture medium (average of approximately 76 pg/ml). Intracellular HBV DNA replication intermediates in untreated cells range from 50 to 100 pg/ug cell DNA (average approximately 74 pg/ug cell DNA). In general, depressions in the levels of intracellular HBV DNA due to treatment with antiviral compounds are less pronounced, and occur more slowly, than depressions in the levels of HBV virion DNA.
# For reference, the manner in which the hybridization analyses were performed for these experiments results in an equivalence of approximately 1.0 pg intracellular HBV DNA/ug cellular DNA to 2-3 genomic copies per cell and 1.0 pg of extracellular HBV DNA/ml culture medium to 3×10^5 viral particles/ml.
# The test compounds were used in the form of stock solutions in DMSO (frozen on dry ice). Daily aliquots of the test samples were made and frozen at −20° C. so that each individual aliquot would be subjected to a single freeze-thaw cycle. The daily test aliquots were thawed, suspended into culture medium at room temperature and immediately added to the cell cultures.
# The ability of the active compounds to inhibit the growth of virus in 2.2.15 cell cultures (HepG2 cells transformed with hepatitis virion) was evaluated.
# [2] = test system: Normal Hep G2 cells; assay: Cytotoxicity by uptake of neutral red dye; assay type: cell-based
# Experimental: (§1) Toxicity analyses were performed in order to assess whether any observed antiviral effects were due to a general effect on cell viability. This can be assessed by the uptake of neutral red dye, a standard and widely used assay for cell viability in a variety of virus-host systems, including HSV (herpes simplex virus) and HIV.
# (§2) Toxicity analyses were performed in 96-well flat bottomed tissue culture plates. Cells for the toxicity analyses were cultured and treated with test compounds with the same schedule as used for the antiviral evaluations. Each compound was tested at 4 concentrations, each in triplicate cultures. Uptake of neutral red dye was used to determine the relative level of toxicity. The absorbance of internalized dye at […] (A510) was used for the quantitative analysis. Values are presented as a percentage of the average A510 values (±standard deviations) in 9 separate cultures of untreated cells maintained on the same 96-well plate as the test compounds.
# [3] = test system: CFU-GM; assay: Human bone marrow clonogenic assay, CFU-GM; assay type: cell-based; settings: effect on cell growth
# [4] = test system: BFU-E; assay: Human bone marrow clonogenic assay, BFU-E; assay type: cell-based; settings: effect on cell growth
# [5] = test system: Normal Hep G2 cells; settings: neutral red dye uptake; typically observed in these assays (Korba and Gerin 1992); cited from earlier work
# [6] = Cytotoxicity by uptake of neutral red dye; assay type: cell-based; settings: human, Normal Hep G2 cells
# Experimental: as §1, §2
# [7] = Transfected 2.2.15 cells, HBV DNA replication intermediates (R.I.)
compound,measurement,setting,value
"Nc1ccn([C@@H]2CS[C@H](CO)O2)c(=O)n1 (single isomer, unassigned) [Lamivudine (3TC), (−)-enantiomer of cis-2-hydroxymethyl-5-(cytosin-1-yl)-1,3-oxathiolane]",EC50,[1]; [7],0.03 µM
Nc1nc(=O)n([C@H]2CC[C@@H](CO)O2)cc1F [Compound L-5-FddC],EC50,[1]; [7],0.05 µM
same,CC50,[2],> 200 µM
same,EC50,[3],1200 nM
same,EC50,[4],1800 nM
"Nc1ccn([C@H]2CC[C@@H](CO)O2)c(=O)n1 [D-ddC, 2′,3′-dideoxycytidine]",EC50,[3],700 nM
same,EC50,[4],50 nM
same,concentration giving a 2-fold reduction in dye uptake versus untreated cultures,[5],150 to 190 µM
"[N-]=[N+]=N[C@H]1C[C@H](CO)O[C@@H]1n1cc(F)c(N)nc1=O [L-2-azido-5-FddC, 1-(2,3-Dideoxy-2-azido-β-L-erythro-pentofuranosyl)-5-fluorocytosine]",EC50,[1]; Hepatitis B virus,0.1 µM
same,CC50,[6],> 200 µM
same,EC50,[3],> 10000 nM
same,EC50,[4],> 10000 nM
"[N-]=[N+]=NC1C[C@@H](n2cc(F)c(N)nc2=O)O[C@H]1CO (stereo partly drawn) [L-3-azido-5-FddC, β-L-(3′-azido)-2′,3′-dideoxy-5-fluorocytidine]",EC50,"[1]; Hepatitis B virus, Transfected 2.2.15 cells, HBV DNA replication intermediates (R.I.)",0.01 µM
same,CC50,[6],> 200 µM
same,EC50,[3],10000 nM
same,EC50,[4],10000 nM
"Cc1cn([C@H]2C[C@H](N=[N+]=[N-])[C@@H](CO)O2)c(=O)[nH]c1=O [Zidovudine (AZT), 3′-azido-3′-deoxythymidine]",EC50,[3],1900 nM
same,EC50,[4],600 nM

# Source: patent US6458773B1, “Nucleoside with anti-hepatitis B virus activity” (Emory University, priority 1998, dated 2002)
